From patent US20240299322A1, “TREATING CANCERS WITH COMBINATIONS OF PARP INHIBITOR AND ACYLFULVENES” (LANTERN PHARMA INC., priority 2022, published 2024)
Like-named read-outs stand apart in the source and are kept apart here.

Legend:
Type in all cases: cell-based
22RV1 (Prostate) = assay: Bliss synergy score (MacSynergy II), LP-100 and PARP inhibitor, 22RV1; conditions: combination with LP-100, score >10 indicates synergy
Description: (§1) This program allows the three-dimensional examination of drug interactions of all data points generated from the checkerboard combination of two inhibitors with Bliss-Independence model (not shown). Confidence bounds are determined from replicate data. […] The volumes of synergy or antagonism can be determined and graphically depicted in three dimensions and represent the relative quantity of synergism or antagonism per change in the two drug concentrations. Synergy and antagonism volumes are based on the Bliss independence model, which assumes that both compounds act independently on different targets. A set of predicted fractional responses faAB under the Bliss independence model is calculated as […] faB with faA and faB representing the fraction of possible responses, e.g. percent (%) inhibition, of compounds A and B at amounts dA and dB, respectively, and describes the percent inhibition of a combination of compounds A and B at amount (dA+dB).

OVCAR3 (Ovarian) = assay: Bliss synergy score (MacSynergy II), LP-100 and PARP inhibitor, OVCAR3; conditions: combination with LP-100, score >10 indicates synergy
Description: as §1

[1] = test system: BRCA2 mutant ovarian tumor cell line PEO1; assay: Cell sensitivity analysis on PEO1 cell line, single and combination treatment, Isobole plot
Description: Cell sensitivity analysis was performed to evaluate the synergistic effect of LP-184 and Olaparib on PEO1 cell line, which is an established BRCA2 mutant ovarian tumor cell line. Cells were seeded onto 96-well plate and were continuously exposed to drug treatment for 8.5 days. IC50 data were obtained from Olaparib, LP-184 single treatment and combination treatment.
Cell sensitivity analysis was performed to evaluate the synergistic effect of LP-184 and Talazoparib on PEO1 cell line. Experiments were done as described above. […] Furthermore, the synergistic effect of Talazoparib and LP-184 co-treatment was analyzed by using an Isobole plot (FIG. 4D).

[2] = Homo sapiens, PEO1, 204 h, PEO1, 8.5 days, Olaparib and LP-184 together, FIG. 3C, read-out: IC50 of Olaparib and LP-184 co-treatment (concentration of each drug giving 50% cell growth inhibition together)
[3] = Homo sapiens, PEO1, PEO1, Example 4, FIGS. 4A, 4B, read-out: IC50 single treatment
[4] = Homo sapiens, PEO1, PEO1, Talazoparib and LP-184 together, FIG. 4C, read-out: IC50 of Talazoparib and LP-184 co-treatment (concentration of each drug giving 50% cell growth inhibition together)
[5] = PEO1, Olaparib and LP-184 co-treatment, Example 3
[6] = PEO1, Talazoparib and LP-184 co-treatment, Example 4

Compound	Bliss Synergy Score between LP-100 and PARP inhibitor (OVCAR3 (Ovarian))	IC50 [1, 2] [nM]	IC50 [1, 3] [nM]	IC50 [1, 4] [nM]	fold less in co-treatment compared to single drug treatment [1, 5] [fold]	fold less in co-treatment compared to single drug treatment [1, 6] [fold]	other results
CNCc1ccc(-c2[nH]c3cc(F)cc4c3c2CCNC4=O)cc1 [Rucaparib, 8-Fluoro-2-{4-[(methylamino)methyl]phenyl}-1,3,4,5-tetrahydro-6H-azepino[-5,4,3-cd]indol-6-one]	14.11	–	–	–	–	–	Bliss Synergy Score between LP-100 and PARP inhibitor (22RV1 (Prostate)): 18.57
CC1=C(CN(O)C(N)=O)C2=C(C)C3(CC3)[C@@](C)(O)C(=O)C2=C1 [LP-184, (−)-hydroxyureamethyl acylfulvene]	–	13.9	87.4	7.2	7.77	12.14	IC50 ([1]; Homo sapiens, PEO1, 204 h, PEO1, Example 4, FIGS. 4A, 4B, read-out: IC50 single treatment): 87.4 nM; IC50 ([1]; Homo sapiens, PEO1, 204 h, PEO1, continuous exposure 8.5 days, Example 3, FIGS. 3A, 3B, read-out: IC50 single treatment): 108 nM
NC(=O)c1cccc2cn(-c3ccc([C@@H]4CCCNC4)cc3)nc12 [Niraparib]	10.34	–	–	–	–	–	–
Cn1ncnc1[C@H]1c2n[nH]c(=O)c3cc(F)cc(c23)N[C@@H]1c1ccc(F)cc1 [Talazoparib, (8S,9R)-5-fluoro-8-(4-fluorophenyl)-9-(1-methyl-1H-1,2,4-triazol-5-yl)-8,-9-dihydro-2H-pyrido[4,3,2de]phthalazin-3 (7H)-one]	–	–	13.1	–	–	3.64	–
O=C(c1cc(Cc2n[nH]c(=O)c3ccccc23)ccc1F)N1CCN(C(=O)C2CC2)CC1 [Olaparib, 4-[(3-[(4-cyclopropylcarbonyl)piperazin-4-yl]carbonyl)-4-fluorophenyl]met-hyl(2H)-phthalazin-1-one]	12.19	279	–	3.6	4.48	–	IC50 ([1]; PEO1, continuous exposure 8.5 days, Example 3, FIGS. 3A, 3B, read-out: IC50 single treatment): 1250 nM
